Reference: patent US20250090510A1, “eIF4G1-eIF1 INHIBITORS AND USE THEREOF” (YEDA RESEARCH AND DEVELOPMENT CO. LTD., priority 2022, published 2025)

Columns and labels:
[1] = system: leaky scanning from cap-proximal AUG in HEK293T cells; experiment: Leaky scanning GFP reporter with cap-proximal upstream AUG, western blot; format: cell-based, human; details: upstream AUG with 16 nt 5′UTR
Description: FIGS. 1A-G: Identification and initial characterization of eIF1-eIF4G1 inhibitors using a high-throughput drug screen (HTS). (1A) A flowchart describing the steps of the recombinant eIF1-eIF4G1 split-RL HTS. (1B) Selection of drugs that inhibit leaky scanning. HEK293T cells were transfected with a short 5′UTR bearing GFP reporter gene described on the top, treated with the indicated HTS hits, and then analyzed by western blot with GFP antibody. US and DS denote upstream and downstream AUG initiation sites, respectively. (1C) A graph showing the change in the ratio of the upstream and downstream AUG following treatment with the indicated drugs. (1D) The chemical structure of the eIF1-eIF4G1 inhibitors, i14G1-10 and i14G1-12. (1E) His-tagged eIF4G1 and His-tagged eIF1 were expressed in BL21 bacteria and purified using nickel NTA beads. Purified His-tagged eIF4G1 and His-tagged eIF1 were incubated with the indicated doses of either i14G1-10 (0-256 μM) or i14G1-12 (0-256 μM) for 5 minutes, followed by fluorescence measurement. For eIF4G1 excitation was at 280 nm and emission was at 350 nm. For eIF1 excitation was at 274 nm and emission was at 304 nm. The data shown represent three independent replicates. IC50 was calculated using Graphpad prism 9. (1F-1G) Western blots of GST pull down. […]
To address the functional significance of the temporal eIF1-eIF4G1 interaction, the inventors set out to develop pharmacological tools against this complex. To this end, the split-Renilla luciferase (RL) complementation assay previously found to be an efficient readout of eIF1 and eIF4G1 interaction in mammalian cells and a highly sensitive and powerful approach for the identification of protein-protein inhibitors was used. […] As knockdown of either eIF1 or eIF4G1 and interference with eIF1-eIF4G1 interaction led to the arrest of leaky scanning from cap-proximal AUG, the selected compounds were analyzed for their effect on initiation from cap-proximal AUG. […]

[2] = biological target: T1, eIF1-eIF4G1 complex (Homo sapiens, UniProt Q04637); experiment: Co-immunoprecipitation of endogenous eIF4G1 with HA-eIF1; format: cell-based; details: ER stress, Thapsigargin 1 μM, 1 hour
T1 construct: co-immunoprecipitation of endogenous eIF4G1 in HEK293T cells expressing HA-eIF1 or HA-eIF4E was performed; endogenous in cells; host or cells: HEK293T (eIF4G1 endogenous; HA-eIF1 transfected)
T1 sequence (Q04637 whole entry, one chain of several): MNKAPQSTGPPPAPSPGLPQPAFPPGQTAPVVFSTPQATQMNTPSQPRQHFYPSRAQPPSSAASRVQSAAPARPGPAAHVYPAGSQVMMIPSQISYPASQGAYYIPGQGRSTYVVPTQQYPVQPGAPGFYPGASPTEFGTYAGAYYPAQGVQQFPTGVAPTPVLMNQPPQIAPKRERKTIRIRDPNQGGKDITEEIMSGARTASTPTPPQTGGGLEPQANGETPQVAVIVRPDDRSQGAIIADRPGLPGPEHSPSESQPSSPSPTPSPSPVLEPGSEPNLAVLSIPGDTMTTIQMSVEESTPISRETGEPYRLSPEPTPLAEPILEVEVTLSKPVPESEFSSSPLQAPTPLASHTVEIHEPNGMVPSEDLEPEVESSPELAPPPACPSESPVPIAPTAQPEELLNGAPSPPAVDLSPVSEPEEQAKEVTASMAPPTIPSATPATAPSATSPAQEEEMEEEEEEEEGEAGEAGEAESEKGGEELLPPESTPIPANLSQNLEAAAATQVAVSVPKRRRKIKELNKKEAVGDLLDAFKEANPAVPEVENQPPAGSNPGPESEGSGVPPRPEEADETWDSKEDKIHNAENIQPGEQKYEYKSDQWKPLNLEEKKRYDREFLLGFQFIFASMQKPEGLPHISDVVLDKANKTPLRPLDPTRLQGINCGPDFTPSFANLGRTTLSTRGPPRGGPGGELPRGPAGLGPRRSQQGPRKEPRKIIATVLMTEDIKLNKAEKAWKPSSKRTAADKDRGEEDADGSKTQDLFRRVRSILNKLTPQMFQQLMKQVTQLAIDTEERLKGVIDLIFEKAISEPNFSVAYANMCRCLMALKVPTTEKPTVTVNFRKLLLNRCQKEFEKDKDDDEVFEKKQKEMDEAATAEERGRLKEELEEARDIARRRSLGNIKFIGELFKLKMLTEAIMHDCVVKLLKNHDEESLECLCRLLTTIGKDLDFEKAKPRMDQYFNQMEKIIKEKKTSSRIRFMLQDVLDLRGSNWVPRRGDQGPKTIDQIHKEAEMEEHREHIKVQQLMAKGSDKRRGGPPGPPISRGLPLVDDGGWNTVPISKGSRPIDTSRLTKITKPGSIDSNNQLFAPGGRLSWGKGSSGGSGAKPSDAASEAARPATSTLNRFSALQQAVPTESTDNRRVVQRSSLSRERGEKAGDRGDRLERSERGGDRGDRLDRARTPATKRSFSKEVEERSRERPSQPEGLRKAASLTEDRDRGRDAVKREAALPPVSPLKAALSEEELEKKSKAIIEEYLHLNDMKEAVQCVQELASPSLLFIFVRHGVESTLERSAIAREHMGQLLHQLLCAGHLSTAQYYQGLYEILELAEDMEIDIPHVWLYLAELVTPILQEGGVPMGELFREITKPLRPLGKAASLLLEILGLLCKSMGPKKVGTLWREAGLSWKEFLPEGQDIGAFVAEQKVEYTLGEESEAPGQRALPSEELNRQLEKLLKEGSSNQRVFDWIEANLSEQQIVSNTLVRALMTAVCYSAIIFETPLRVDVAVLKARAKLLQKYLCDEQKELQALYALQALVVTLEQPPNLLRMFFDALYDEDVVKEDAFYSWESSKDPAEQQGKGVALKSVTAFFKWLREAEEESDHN
Experimental: (§1) FIGS. 2A-C: The effect of i14G1-10 and i14G1-12 on eIF1-eIF4G1 and eIF4E-eIF4G1 complexes. (2A-B) HA-eIF1 and HA-eIF4E were each transfected into HEK293T cells and 48 h after transfection cells were treated with DMSO or i14G1-10 (2A) or i14G1-12 (2B) for 4 h, followed by immunoprecipitation of HA-eIF1 or HA-eIF4E using anti-HA-agarose beads. Western blot was run to check co-immunoprecipitation of endogenous eIF4G1 with HA-eIF1 or HA-eIF4E. The graphs represent the co-immunoprecipitation of eIF4G1 with HA-eIF1 (right) or HA-eIF4E (left). Co—IP data shown as mean±SEM of 4-7 independent experiments. The asterisks denote statistically significant difference compared to DMSO, according to Student's t-tests (one-tailed, paired). *p<0.05. (2C) HEK293T cells were treated with DMSO, i14G1-10, or i14G1-12 for 4 h, followed by cell lysis. Respective cell lysates were incubated with cap analog (γ-Aminohexyl-m7GTP) beads for 2 h to precipitate bound eIF4E. Western blot was performed to check co-precipitation of eIF4G1 along with eIF4E on the cap-analog beads. The graph represents the binding fraction of eIF4G1 and eIF4E to the cap-analog beads (mean±SEM) with DMSO (black), i14G1-10 (blue), and i14G1-12 (red), n=6. The asterisks denote statistically significant difference compared to DMSO, according to Student's t-tests (one-tailed, paired). *p<0.05; **p<0.01.
(§2) Co-immunoprecipitation. HEK293T cells were transfected with 5 μg of HA-eIF1 or HA-eIF4E plasmids along with 10 ng GFP plasmid to check for transfection efficiency using Jetprime reagent as per manufacturer's protocol. After 48 h, HA-eIF1 and HA-eIF4E expressing HEK293T cells were incubated with DMSO, i14G1-10 (20 μM), and […] (10 μM). 4 h later, cells were lysed using IP buffer (20 mM Tris pH8, 125 mM NaCl, 10% glycerol, 50 mM NaF, 1 mM […], 0.5% NP-40, and 0.2 mM EDTA) supplemented with fresh protease inhibitor cocktail (1:100) and PMSF 200 μM (1:100). Protein extract was taken for immunoprecipitation using either monoclonal anti-HA-agarose antibody (Sigma) or control IgG antibody in IP buffer, at 4° C. for 2 hours. […]

[3] = biological target: T2, eIF4E-eIF4G1 complex (Homo sapiens, UniProt Q04637); experiment: Co-immunoprecipitation of endogenous eIF4G1 with HA-eIF4E; format: cell-based; details: ER stress, Thapsigargin 1 μM, 1 hour
T2 construct: co-immunoprecipitation of endogenous eIF4G1 in HEK293T cells expressing HA-eIF1 or HA-eIF4E was performed; endogenous in cells; host or cells: HEK293T (eIF4G1 endogenous; HA-eIF4E transfected)
T2 sequence (Q04637 whole entry): as the sequence (Q04637 whole entry, one chain of several) above
T2 sequence (P06730 whole entry partner): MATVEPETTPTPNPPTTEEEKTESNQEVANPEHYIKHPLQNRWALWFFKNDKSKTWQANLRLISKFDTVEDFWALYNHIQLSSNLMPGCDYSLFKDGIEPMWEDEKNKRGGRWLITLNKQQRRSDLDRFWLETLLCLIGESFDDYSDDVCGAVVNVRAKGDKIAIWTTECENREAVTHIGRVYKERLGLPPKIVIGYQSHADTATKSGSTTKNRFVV
Experimental: as §1, §2

| Structure (SMILES) | upstream to downstream AUG ratio (leaky scanning) [1] | reduction of co-precipitated eIF4G1 with HA-eIF1 [2] [%] | level of co-precipitated eIF4G1 with HA-eIF4E [3] |
| --- | --- | --- | --- |
| Cc1ccc(/C(=C\C=C(C#N)C#N)Sc2nc3ccccc3s2)cc1 [i14G1-11] | selectively changed the upstream to downstream ratio by inhibiting leaky scanning from the cap-proximal AUG | – | – |
| C/C=C(/C)C(=O)O[C@H]1C(C)=C2[C@H]([C@@H]1OC(=O)CCCCCCC)[C@@](C)(OC(C)=O)C[C@H](OC(=O)CCC)[C@@]1(O)[C@H]2OC(=O)[C@@]1(C)O [Thapsigargin, reference compound] | – | 50 | no significant change |
